Data: PubChem BioAssay (NCI)
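Results reflect a 48-hour exposure of cells in 96-well plates to compound at five concentrations. At the TGI there is no net growth.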

Key:
Experiment in all cases: growth of human tumour cells (NCI), 48 h
[1] = test system: DU-145 prostate
[2] = test system: MDA-N
[3] = test system: KM12 colon
[4] = test system: U251 CNS
[5] = test system: LOX IMVI melanoma
[6] = test system: SNB-75 CNS
[7] = test system: MALME-3M melanoma
[8] = test system: HCT-15 colon
[9] = test system: SN12C renal
[10] = test system: UACC-62 melanoma
[11] = test system: OVCAR-8 ovarian
[12] = test system: MCF7 breast
[13] = test system: HCC-2998 colon
[14] = test system: MDA-MB-231 breast
[15] = test system: OVCAR-5 ovarian
[16] = test system: HT29 colon
[17] = test system: SK-MEL-2 melanoma
[18] = test system: NCI-H460 lung
[19] = test system: UACC-257 melanoma
[20] = test system: OVCAR-4 ovarian
[21] = test system: BT-549 breast
[22] = test system: SK-MEL-28 melanoma
[23] = test system: CCRF-CEM leukemia
[24] = test system: NCI-H522 lung
[25] = test system: SF-539 CNS
[26] = test system: OVCAR-3 ovarian
[27] = test system: SK-MEL-5 melanoma
[28] = test system: SW-620 colon
[29] = test system: MOLT-4 leukemia
[30] = test system: HCT-116 colon
[31] = test system: SF-295 CNS
[32] = test system: K-562 leukemia
[33] = test system: SNB-19 CNS
[34] = test system: ACHN renal
[35] = test system: MDA-MB-435
[36] = test system: A549 NSCLC
[37] = test system: UO-31 renal
[38] = test system: IGROV1 ovarian
[39] = test system: PC-3 prostate
[40] = test system: SK-OV-3 ovarian
[41] = test system: TK-10 renal
[42] = test system: HS 578T breast
[43] = test system: M14 melanoma
[44] = test system: T-47D breast
[45] = test system: 786-0 renal
[46] = test system: SR leukemia
[47] = test system: HL-60(TB) leukemia
[48] = test system: EKVX NSCLC
[49] = test system: SF-268 CNS
[50] = test system: CAKI-1 renal
[51] = test system: HOP-62 NSCLC
[52] = test system: RPMI-8226 leukemia
[53] = test system: HOP-92 NSCLC
[54] = test system: RXF 393 renal
[55] = test system: NCI-H23 lung
[56] = test system: NCI/ADR-RES ovarian
[57] = test system: COLO 205 colon
[58] = test system: NCI-H226 lung

SMILES: CCOC(=O)C1(C(=O)OCC)[C@H](c2ccccc2)C2=NO[C@@H]3CCC[C@H]1[C@H]23
- TGI [1]: > 100 µM
- TGI [2]: > 100 µM
- TGI [3]: > 100 µM
- TGI [4]: > 100 µM
- TGI [5]: > 100 µM
- TGI [6]: > 100 µM
- TGI [7]: > 100 µM
- TGI [8]: > 100 µM
- TGI [9]: > 100 µM
- TGI [10]: > 100 µM
- TGI [11]: > 100 µM
- TGI [12]: > 100 µM
- TGI [13]: 60 µM
- TGI [14]: > 100 µM
- TGI [15]: > 100 µM
- TGI [16]: > 100 µM
- TGI [17]: > 100 µM
- TGI [18]: > 100 µM
- TGI [19]: > 100 µM
- TGI [20]: > 100 µM
- TGI [21]: > 100 µM
- TGI [22]: > 100 µM
- TGI [23]: > 100 µM
- TGI [24]: > 100 µM
- TGI [25]: > 100 µM
- TGI [26]: 96.8 µM
- TGI [27]: > 100 µM
- TGI [28]: > 100 µM
- TGI [29]: > 100 µM
- TGI [30]: > 100 µM
- TGI [31]: > 100 µM
- TGI [32]: > 100 µM
- TGI [33]: > 100 µM
- TGI [34]: > 100 µM
- TGI [35]: 51.5 µM
- TGI [36]: > 100 µM
- TGI [37]: > 100 µM
- TGI [38]: > 100 µM
- TGI [39]: > 100 µM
- TGI [40]: > 100 µM
- TGI [41]: > 100 µM
- TGI [42]: > 100 µM
- TGI [43]: > 100 µM
- TGI [44]: > 100 µM
- TGI [45]: > 100 µM
- TGI [46]: > 100 µM
- TGI [47]: > 100 µM
- TGI [48]: > 100 µM
- TGI [49]: > 100 µM
- TGI [50]: > 100 µM
- TGI [51]: > 100 µM
- TGI [52]: > 100 µM
- TGI [53]: > 100 µM
- TGI [54]: > 100 µM
- TGI [55]: > 100 µM
- TGI [56]: > 100 µM
- TGI [57]: > 100 µM
- TGI [58]: > 100 µM
